Experiments:
[1] = test system: phosphorylation of ERK, KRAS G12C in NCI-H358 cells; assay: pERK inhibition assay; format: cell-based; conditions: Homo sapiens, NCI-H358, 4 h
Description: (§1) This assay is to measure the ability of test compounds in inhibiting the phosphorylation of ERK, the downstream signaling of KRAS G12C in NCI-H358 cells, KRAS G12D in AGS cells, and KRAS G12V in SW620. NCI-H358 (ATCC-CRL5807) cells, AGS (ATCC-CRL-1739) cells, SW620 (ATCC-CCL-227) cells were all grown and maintained using RPMI-1640 medium (Thermo Fisher Scientific) with 10% fetal bovine serum and 1% penicillin/streptomycin. On the day prior to compound addition, cells were plated in tissue culture-treated 96 well plates (Corning-3699) at a density of 30,000 cell/well, 20,000 cell/well, 30,000 cell/well for NCI-H358, AGS and SW620 respectively, and allowed for attachment overnight. Diluted compounds were then added in a final concentration of 0.5% DMSO. After 4 hours of incubation, the medium was removed, 100 μL of 4% formaldehyde was added, and the assay plates were incubated at room temperature for 20 minutes. The plates were then washed once with phosphate buffered saline (PBS), and permeabilized with 100 μL of chilled methanol for 10 minutes. Non-specific antibody binding to the plates was blocked using 50 μL 1X BSA blocking buffer (Thermo-37520, 10-fold dilution by Phosphate-Buffered Saline Tween (PBST) for at least 1 hour at room temperature.
(§2) The amount of phosphor-ERK was determined using an antibody specific for phosphorylated form of ERK. Primary antibody (PERK, CST-4370, Cell Signaling Technology) was diluted 1:300 in blocking buffer, with 50 μL aliquoted to each well, and incubated overnight at 4° C. Cells was washed five times for 5 minutes with PBST. Secondary antibody (HRP-linked anti-rabbit IgG, CST-7074, Cell Signaling Technology) was diluted 1:1000 in blocking buffer, and 50 μL was added to each well and incubated 1-2 hrs at room temperature. Cells was washed […] for 5 minutes with PBST, 100 μL TMB ELISA substrate (abcam-ab171523) were added and gently shake for 20 minutes. 50 μL stop solution (abcam-ab 171529) were added, and then read the signal (OD450) by EnVision.
(§3) IC50 was determined by fitting a 4-parameter sigmoidal concentration response model.

[2] = test system: phosphorylation of ERK, KRAS G12D in AGS cells; assay: pERK inhibition assay; format: cell-based; conditions: Homo sapiens, AGS, 4 h
Description: as §1, §2, §3

[3] = test system: phosphorylation of ERK, KRAS G12V in SW620; assay: pERK inhibition assay; format: cell-based; conditions: Homo sapiens, SW-620, 4 h, SW620 cells
Description: as §1, §2, §3

KRAS G12C-BRAF complex = KRAS G12C-BRAF complex (Homo sapiens (Human), UniProt P01116+P62937, G12C); assay: KRAS-BRAF with CYPA (500 nM) interaction assay (TR-FRET, Example 136); format: biochemical; conditions: KRAS G12C-BRAF disruption
Description: In this example, TR-FRET was also used to measure the compound or compound-CYPA dependent disruption of the KRAS G12C-BRAF complex. This protocol was also used to measure disruption of KRAS G12D or KRAS G12V binding to BRAF by a compound of the invention, respectively. In assay buffer containing 25 mM HEPES PH=7.4 (4-(2-hydroxyethyl)-1-piperazineethanesulfonic acid, Thermo, 15630080), 0.002% Tween20, 0.1% BSA, 100 mM NaCl, 5 mM MgCl2, 10 μM GMPPNP (Guanosine 5′-[β,γ-imido]triphosphate trisodium salt hydrate, Sigma, G0635), […] 384-well assay plate at final concentrations of 50 nM, 6.25 nM and 1 nM, respectively. Compound was present in plate wells as a 16-point 3-fold dilution series starting at a final concentration of 10 μM and incubated for 3 hours. A mixture of MAb Anti-6His-XL665 (Cisbio, 61HISXLB) and Mab anti-GST-TB cryptate (Cisbio, 61GSTTLB) was then added at a final concentration of 6.67 nM and 0.21 nM, respectively, and the plate was incubated for an additional 1.5 hours. TR-FRET signal was read on a PHERstar FSX microplate reader (Ex320 nm, Em 665/615 nm). Compounds that facilitate disruption of the KRAS-BRAF complex were identified as those eliciting a decrease in the TR-FRET ratio relative to DMSO control wells.

Sequence of KRAS G12C-BRAF complex (P01116-2 other isoform, or with tags, fused parts or gaps G12C): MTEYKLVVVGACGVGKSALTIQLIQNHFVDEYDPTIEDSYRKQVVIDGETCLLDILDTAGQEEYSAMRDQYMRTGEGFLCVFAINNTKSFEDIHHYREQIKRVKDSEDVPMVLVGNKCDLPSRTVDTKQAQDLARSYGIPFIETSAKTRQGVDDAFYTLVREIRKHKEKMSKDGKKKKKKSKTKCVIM
Sequence of KRAS G12C-BRAF complex (P62937 whole entry): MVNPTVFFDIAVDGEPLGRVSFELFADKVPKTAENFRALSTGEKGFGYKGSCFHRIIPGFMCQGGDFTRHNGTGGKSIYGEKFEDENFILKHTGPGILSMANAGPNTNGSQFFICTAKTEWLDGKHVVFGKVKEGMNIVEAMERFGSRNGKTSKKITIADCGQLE

In the case of `CO[C@@H](C)c1ncc(N2CCN(CC(F)(F)F)CC2)cc1-c1c2c3cc(cc4c3n1CCC4)-c1csc(n1)C[C@H](NC(=O)[C@H]1C[C@@H]1C)C(=O)N1CCC[C@H](N1)C(=O)OCC(C)(C)C2` (atropisomer, axis not shown; (M)) [Example 3, (1S,2S)-N-[(7S,13S)-(20M)-20-[2-[(1S)-1-methoxyethyl]-5-[4-(2,2,2-trifluoroethyl)piperazin-1-yl]-3-pyridyl]-17,17-dimethyl-8,14-dioxo-15-oxa-4-thia-9,21,30,31-tetrazahexacyclo[23.3.1.1^2,5.1^9,13.0^19,27.0^21,26]hentriaconta-1 (28),2,5 (31), 19,25 (29),26-hexaen-7-yl]-2-methyl-cyclopropanecarboxamide], the IC50 [1] is reported as 5.1 nM, the IC50 [2] is reported as 24.3 nM and the IC50 [3] is reported as 3.6 nM. It also gave an IC50 (KRAS G12C-BRAF complex) of 31.4 nM.

For `CO[C@@H](C)c1ncc(N2CCN(C)CC2)cc1-c1c2c3cc(cc4c3n1CCC4)-c1csc(n1)C[C@H](NC(=O)C1CCC(F)(F)C1)C(=O)N1CCC[C@H](N1)C(=O)OCC(C)(C)C2` (stereo partly drawn) [Example 65, 3,3-difluoro-N-[(7S,13S)-(20M)-20-[2-[(1S)-1-methoxyethyl]-5-(4-methylpiperazin-1-yl)-3-pyridyl]-17,17-dimethyl-8,14-dioxo-15-oxa-4-thia-9,21,30,31-tetrazahexacyclo[23.3.1.1^2,5.1^9,13.0^19,27.0^21,26]hentriaconta-1 (28),2,5 (31), 19,25 (29),26-hexaen-7-yl]cyclopentanecarboxamide], the IC50 [1] was 2.3 nM, the IC50 [2] was 31.7 nM and the IC50 [3] was 5 nM. For the same compound, the IC50 (KRAS G12C-BRAF complex) was 51.3 nM.

With `CO[C@@H](C)c1ncc(N2CCN(C)CC2)cc1-c1c2c3cc(cc4c3n1CCC4)-c1csc(n1)C[C@H](NC(=O)C13CC(CO1)C3)C(=O)N1CCC[C@H](N1)C(=O)OCC(C)(C)C2` [Example 66, N-[(7S,13S)-(20M)-20-[2-[(1S)-1-methoxyethyl]-5-(4-methylpiperazin-1-yl)-3-pyridyl]-17,17-dimethyl-8,14-dioxo-15-oxa-4-thia-9,21,30,31-tetrazahexacyclo[23.3.1.1^2,5.1^9,13.0^19,27.0^21,26]hentriaconta-1 (28),2,5 (31), 19,25 (29),26-hexaen-7-yl]-2-oxabicyclo[2.1.1]hexane-1-carboxamide] the IC50 [1] was 2.6 nM, the IC50 [2] was 40.2 nM and the IC50 [3] was 3.3 nM. For the same compound, the IC50 (KRAS G12C-BRAF complex) was 50.5 nM.

Work on `CO[C@@H](C)c1ncc(N2CCN(C)CC2)cc1-c1c2c3cc(cc4c3n1CCC4)-c1csc(n1)C[C@H](NC(=O)[C@H]1CC[C@](C)(O)CC1)C(=O)N1CCC[C@H](N1)C(=O)OCC(C)(C)C2` (atropisomer, axis not shown; (M)) [Example 71, trans-4-hydroxy-N-[(7S,13S)-(20M)-20-[2-[(1S)-1-methoxyethyl]-5-(4-methylpiperazin-1-yl)-3-pyridyl]-17,17-dimethyl-8,14-dioxo-15-oxa-4-thia-9,21,30,31-tetrazahexacyclo[23.3.1.1^2,5.1^9,13.0^19,27.0^21,26]hentriaconta-1 (28),2,5 (31), 19,25 (29),26-hexaen-7-yl]-4-methyl-cyclohexanecarboxamide] yielded an IC50 [1] of 3.6 nM, an IC50 [2] of 51.5 nM and an IC50 [3] of 6.5 nM. It also gave an IC50 (KRAS G12C-BRAF complex) of 28.9 nM.

`CO[C@@H](C)c1ncc(N2CCOCC2)cc1-c1c2c3cc(cc4c3n1[C@@H](C)CO4)-c1csc(n1)C[C@H](NC(=O)[C@H]1C[C@@H]1C)C(=O)N1CCC[C@H](N1)C(=O)OCC(C)(C)C2` (atropisomer, axis not shown; (M)) [Example 53, (1S,2S)-N-[(7S,13S,22S)-(20M)-20-[2-[(1S)-1-methoxyethyl]-5-morpholino-3-pyridyl]-17,17,22-trimethyl-8,14-dioxo-15,24-dioxa-4-thia-9,21,30,31-tetrazahexacyclo[23.3.1.1^2,5.1^9,13.0^19,27.0^21,26]hentriaconta-1 (28),2,5 (31), 19,25 (29),26-hexaen-7-yl]-2-methyl-cyclopropanecarboxamide] gave an IC50 [1] of 21.2 nM, an IC50 [2] of 176 nM and an IC50 [3] of 24.5 nM. For the same compound, the IC50 (KRAS G12C-BRAF complex) was 65.7 nM.
